In the oligonucleotide strings, read from the 5' end, every base follows the letter of its sugar. An asterisk marks phosphorothioate; unmarked linkages are phosphodiester. Other units and linkages are bracketed, terminal groups are in braces. A string of capitals states the bases alone. e = 2'-O-(2-methoxyethyl) (MOE); [5mC] = 5-methylcytosine; d = 2'-deoxy (DNA)
How the values were obtained:
mir-15a pri-miRNA = mir-15a pri-miRNA expression in T47D cells (real-time RT-PCR); format: cell-based, human
Description: The gapmer oligomeric compounds targeting the mir-15b and mir-15-a-1 mature miRNAs described above were also transfected into T47D cells according to standard procedures. In addition, uniform 2′-MOE and 2′-MOE gapmer oligomeric compounds targeting the mature mir-15a-1 and mir-15b miRNAs were also transfected into T47D cells, for analysis of their effects on mir-15a-1 and mir-15b pri-miRNA levels. The oligomeric compounds ISIS Number 327927 (SEQ ID NO: 345), a uniform 2′-MOE compound and ISIS Number 345391 (SEQ ID NO: 345), a 2′-MOE 5-10-7 gapmer compound, both target mir-15b. The oligomeric compounds ISIS Number 327951 (SEQ ID NO: 369), a uniform 2′-MOE compound, and ISIS Number 345411 (SEQ ID NO: 369), a 2′-MOE 5-10-7 gapmer compound, both target mir-15a-1. Oligomeric compounds ISIS Number 129686 ([…]; SEQ ID NO: 901), and ISIS Number 129691 ([…]; SEQ ID NO:902), both universal scrambled controls, as well as ISIS Number 116847 ([…]; SEQ ID NO: 844) targeting an unrelated gene, PTEN, were used as negative controls. ISIS Numbers 129686, 129691, and 116847 are phosphorothiated 2′-MOE 5-10-5 gapmers, and all cytosines are 5-methylcytosines. T47D cells (seeded in 12-well plates) were treated with these oligomeric compounds, and RNA was isolated from the treated cells by lysing in 1 mL TRIZOL™ (Invitrogen) and total RNA was prepared using the manufacturer's recommended protocols. To assess the effects of these compounds on expression of the mir-15a or mir-15b pri-miRNA molecules, real-time RT-PCR analysis was performed using either the primer/probe set specific for the mir-15a pri-miRNA molecule described above, or a primer probe set specific for the mir-15b pri-miRNA molecule: ISIS 339320 ([…]; SEQ ID NO: 903) was used as the forward primer for the mir-15b pri-miRNA, ISIS 339321 ([…] ACTGT; SEQ ID NO: 904) was used as the reverse primer for the mir-15b pri-miRNA, and ISIS 339322 ([…]; SEQ ID NO: 905) was used as the probe. Total RNA was quantified using RiboGreen™ RNA quantification reagent (Molecular Probes, Inc. Eugene, Oreg.), expression levels observed for each target were normalized to 5.8S rRNA, and values are expressed relative to the untreated control. Inhibition of expression of the mir15a or mir-15b pri-miRNA molecules upon treatment with these oligomeric compounds is was assessed and expressed as a percentage of RNA levels in untreated control cells.
Using the real-time RT-PCR methods described, the expression levels of the mir-15a pri-miRNA were compared in T47D cells treated with the nested series of uniform 2′-MOE oligomeric compounds, targeting and spanning the entire length of the mir-15a pri-miRNA. The region encompassing the mir-15a primary transcript (the complement of nucleotides 31603159 to 31603468 of GenBank Accession number NT—024524.13; AAATAATTATG […]) is incorporated herein as SEQ ID NO: 906. ISIS Number 356215 (SEQ ID NO: 879) targets a region flanking and immediately 5′ to the predicted 5′ Drosha cleavage site in the mir-15a pri-miRNA. ISIS Number 356218 (SEQ ID NO: 881) targets aregion in the loop of the mir-15a pri-miRNA. ISIS 356227 (SEQ ID NO: 883) targets a region flanking and immediately 3′ to the predicted 3′ Drosha cleavage site in the mir-15a pri-miRNA. Additionally, oligomeric compound ISIS 327951 (SEQ ID NO: 369), a uniform 2′-MOE compound targeting the mature mir-15a-1 miRNA, was tested for comparison. Oligomeric compounds ISIS 327901 (SEQ ID NO: 319) targeting the mature mir-143 miRNA; ISIS 129690, ([…]; SEQ ID NO: 907), a phosphorothioate 5-10-5 MOE gapmer used as a universal scrambled control; and ISIS 116847 ([…]; SEQ ID NO: 844), a uniform 5-10-52′-MOE gapmer targeting an unrelated gene, PTEN, were used as negative controls. Using the transfection methods previously described, T47D cells were treated with 100 nM of each of these oligomeric compounds. […]

HSL = HSL mRNA expression in adipocytes (real-time PCR); format: cell-based, human; details: for HSL (mRNA expression): adipocytes, 250 nM oligomeric compound, day nine post-transfection, relative to control (1.0), Table 16
Glut4 = Glut4 mRNA expression in adipocytes (real-time PCR); format: cell-based, human; details: for Glut4 (mRNA expression): adipocytes, 250 nM oligomeric compound, day nine post-transfection, relative to control (1.0), Table 16
leptin = assay: Leptin secretion by adipocytes (ELISA); format: cell-based, human; details: adipocytes, 250 nM oligomeric compound, day nine post-transfection, relative to control (1.0); Table 16
Description: Leptin secretion into the medium in which adipocytes are cultured is measured by protein ELISA. On day nine post-transfection, 96-well plates are coated with a monoclonal antibody to human leptin (R&D Systems, Minneapolis, Minn.) and left at 4° C. overnight. The plates are blocked with bovine serum albumin (BSA), and a dilution of the treated adipoctye medium is incubated in the plate at room temperature for approximately 2 hours. After washing to remove unbound components, a second monoclonal antibody to human leptin (conjugated with biotin) is added. The plate is then incubated with strepavidin-conjugated horse radish peroxidase (HRP) and enzyme levels are determined by incubation with 3, 3′,5,5′-tetramethlybenzidine, which turns blue when cleaved by HRP. The OD450 is read for each well, where the dye absorbance is proportional to the leptin concentration in the cell lysate.
Leptin is also a marker for differentiated adipocytes. In the adipocyte assay, leptin secretion into the media above the differentiated adipocytes was measured by protein ELISA. Cell growth, transfection and differentiation procedures were carried out as described for the Triglyceride accumulation assay (see below). On day nine post-transfection, 96-well plates were coated with a monoclonal antibody to human leptin (R&D Systems, Minneapolis, Minn.) and left at 4° C. overnight. The plates were blocked with bovine serum albumin (BSA), and a dilution of the media was incubated in the plate at RT for 2 hours. After washing to remove unbound components, a second monoclonal antibody to human leptin (conjugated with biotin) was added. The plate was then incubated with strepavidin-conjugated horseradish peroxidase (HRP) and enzyme levels are determined by incubation with 3, 3′, 5,5′-Tetramethlybenzidine, which turns blue when cleaved by HRP. The OD450 was read for each well, where the dye absorbance is proportional to the leptin concentration in the cell lysate. Results are expressed as a percent±standard deviation relative to transfectant-only controls.

aP2 = aP2 mRNA expression in adipocytes (real-time PCR); format: cell-based, human; details: for AP2 (mRNA expression): adipocytes, 250 nM oligomeric compound, day nine post-transfection, relative to control (1.0), Table 16
HuVECs = assay: Endothelial tube formation assay in HuVECs; details: 75 nM oligomeric compound
adipocytes = assay: Triglyceride accumulation assay in adipocytes; format: cell-based, human
PPARγ = PPARγ mRNA expression in adipocytes (real-time PCR); format: cell-based, human; details: for PPAR gamma (mRNA expression): adipocytes, 250 nM oligomeric compound, day nine post-transfection, relative to control (1.0), Table 16
preadipocytes = assay: Caspase assay in preadipocytes; format: cell-based, human; details: untreated control set equal to 1.0
Description: The effect of oligomeric compounds of the present invention targeting miRNAs was examined in preadipocytes (Zen-Bio, Inc., Research Triangle Park, N.C.) using the fluorometric caspase assay previously described in Example 11.

[1] = test system: BJ, B16-F10, T47D, T47Dp53 and HeLa cells; assay: Cell cycle assay (propidium iodide flow cytometry), cell line panel; format: cell-based; details: 150 nM oligomeric compound, 4.5 μg/ml LIPOFECTIN, after 72 hours, propidium iodide flow cytometry
T47D cells = assay: Caspase-3 activity assay (apoptosis) in T47D cells; details: T47D cells, 48 hours; for Fold Increase over UTC (caspase-3 activity, apoptosis): 200 nM oligomeric compound
[2] = adipocytes, 250 nM oligomeric compound, relative to control (1.0), Table 16
[3] = differentiating adipocytes transfected with oligomeric compound

Substance | HSL (mRNA expression) (HSL) | Glut4 (mRNA expression) (Glut4) | Leptin (secretion) (leptin) | AP2 (mRNA expression) (aP2) | TG (triglyceride accumulation) (adipocytes; [2]) | PPAR gamma (mRNA expression) (PPARγ) | Fold Increase over UTC (caspase activity) (preadipocytes) [fold over UTC] | % Activity Relative to UTC (tube formation) (HuVECs; Table 58) [%] | other results
ISIS 356232: uniform 2′-MOE PS; targets mir-15a pri-miRNA (antisense eA*eA*eA*eT*eA*eT*eA*eT*eT*eT*eT*e[5mC]*eT*eT*e[5mC]*eA*eG*eA*eA*eG) |  |  |  |  |  |  |  |  | levels of the mir-15a pri-miRNA molecule (mir-15a pri-miRNA; 100 nM): stimulate an increase in levels of the mir-15a pri-miRNA molecule
116847 (antisense e[5mC]*eT*eG*e[5mC]*eT*dA*dG*d[5mC]*d[5mC]*dT*d[5mC]*dT*dG*dG*dA*eT*eT*eT*eG*eA) [compound 116847] |  |  |  |  |  |  |  |  | mir-15a pri-miRNA expression % UTC (mir-15a pri-miRNA; real-time RT-PCR): 132 % UTC
327955 (antisense eG*e[5mC]*e[5mC]*e[5mC]*eT*eT*eT*e[5mC]*eA*eT*e[5mC]*eA*eT*eT*eG*e[5mC]*eA*e[5mC]*eT*eG) [compound 327955] | 0.82 | 0.45 | 1.22 | 0.74 | 0.81 | 0.92 | 4.3 |  | % Activity Relative to UTC (tube formation) (HuVECs; Table 59): 46.7%
327942 (antisense e[5mC]*e[5mC]*eA*eT*e[5mC]*eT*eT*eT*eA*e[5mC]*e[5mC]*eA*eG*eA*e[5mC]*eA*eG*eT*eG*eT*eT) [compound 327942] | 0.79 | 0.66 | 2.03 | 0.82 | 0.85 | 0.87 | 1.0 | 74.1 | 
327938 (antisense eA*eA*e[5mC]*eA*eA*eT*eA*e[5mC]*eA*eA*e[5mC]*eT*eT*eA*e[5mC]*eT*eA*e[5mC]*e[5mC]*eT*e[5mC]*eA) [compound 327938] | 0.85 | 0.80 | 1.35 | 0.86 | 1.05 | 0.90 | 1.0 | 96.3 | 
NNNNNNNNNNNNNNNNNNNN [ISIS 29848, reference compound] |  |  |  |  |  |  | 1.2 |  | HSL mRNA (HSL; [3]): 84 percentage of untreated control (UTC); G1 (percentage of cells in phase of the cell cycle) [1]: 57.8%; G2/M (percentage of cells in phase of the cell cycle) [1]: 15.6%; S (percentage of cells in phase of the cell cycle) [1]: 26.5%; SubG1 (percentage of cells in phase of the cell cycle) [1]: 9.6%; aneuploid (percentage of cells) [1]: 12%; GLUT4 mRNA (Glut4; [3]): 96 percentage of untreated control (UTC); Fold Increase over UTC (caspase-3 activity, apoptosis) (T47D cells; experiment of Table 10): 3.0 fold; Fold Increase over UTC (caspase-3 activity, apoptosis) (T47D cells; experiment of Table 11): 3.2 fold; Fold Increase over UTC (caspase-3 activity, apoptosis) (T47D cells; experiment of Table 12): 3.5 fold; Fold Increase over UTC (caspase activity) (T47D cells; 200 nM, relative to untreated control): 3.5; AP2 mRNA (aP2; [3]): 89 percentage of untreated control (UTC); TG (triglyceride accumulation) (adipocytes; [3]): 89 percentage of untreated control (UTC); PPAR gamma mRNA (PPARγ; [3]): 100 percentage of untreated control (UTC)
327930 (antisense eA*e[5mC]*eT*eA*eT*eA*e[5mC]*eA*eA*e[5mC]*e[5mC]*eT*e[5mC]*e[5mC]*eT*eA*e[5mC]*e[5mC]*eT*e[5mC]*eA) [compound 327930] | 0.89 | 1.01 | 0.95 | 0.86 | 0.97 | 0.98 | 1.4 | 88.9 | 
327926 (antisense eA*e[5mC]*eT*eA*eT*eG*e[5mC]*eA*eA*e[5mC]*e[5mC]*eT*eA*e[5mC]*eT*eA*e[5mC]*e[5mC]*eT*e[5mC]*eT) [compound 327926] | 0.82 | 1.10 | 1.47 | 0.85 | 1.06 | 0.93 | 1.8 | 96.3 | 
